The values below come from patent US20200216563A1, “HDAC6 AND PROTEIN AGGREGATION” (Friedrich Miescher Institute for Biomedical Research, priority 2017, published 2020).

One assay relates to DDX3X-K118Ac. Put plainly: DDX3X acetylation in HEK293T cells expressing CBP or p300 (immunoprecipitation and immunoblotting). It counts as cell-based, human. The note with it: for DDX3X-K118Ac signal after treating the cells with HDAC inhibitors: HEK293T cells transiently expressing CBP, DDX3X-K118Ac-specific antibody. The method, then:
HEK293T cells were transfected with Lipofectamine 2000 (Life Technologies) or FuGENE HD (Promega), and MEF cells were transfected with 4D-Nucleofector™ System (Lonza), following manufacturer's protocol.
Cells were washed by ice-cold PBS and lysed in Triton lysis buffer (50 mM Tris-HCl, pH8.0, 150 mM sodium chloride, 1 mM EDTA, 0.1% TritonX-100 and Complete EDTA-free protease inhibitors (Roche)) for analysis. To detect protein acetylation, 0.2 μM Trichostatin A and 5 mM nicotinamide was added to PBS for wash, and 10 μM Trichostatin A, 10 mM nicotinamide, 50 mM sodium butyrate were added to Triton lysis buffer. To detect protein phosphorylation, Pierce Protease and Phosphatase Inhibitor Mini Tablets (Thermo scientific) were added to Triton lysis buffer instead of Complete EDTA-free protease inhibitors. Five hundred μg protein lysates were incubated with the specific antibody for overnight at 4° C., and immunoprecipitated with Dynabeads ProteinG (invitrogen) for 1 h at 4° C. Samples were boiled for 10 min in SDS-PAGE sample buffer, and separated with 4-12% NuPAGE gels (invitrogen). […] For inhibition of HDACs in cells, concentration of each HDAC inhibitor was as described in {Scholz, 2015 #851}.
(§1) To investigate whether DDX3X-K118Ac is a direct target site of HDAC6, the inventors performed a biochemical assay using purified components. […] Next, they tested the acetylation status of DDX3X in cells. It has been shown that the stoichiometry of acetylation is generally low {Weinert, 2014 #452}, making it difficult to detect. The inventors therefore attempted to enhance the level of acetylation by expressing different HATs. To test which HAT(s) can act on DDX3X, expression vectors for PCAF, CBP, Tip60 or p300 were individually transfected into HEK293T cells and cellular extracts were analyzed by immunoprecipitation and immunoblotting.
Different deacetylases often redundantly target the same lysine acetylation site on a target protein. […] To test whether the DDX3X-K118 deacetylation is specific for HDAC6, the inventors transiently expressed CBP in HEK293T cells and assessed the DDX3X-K118Ac signal after treating the cells with several HDAC inhibitors.

Assay [1] has as its target T1, Danio rerio HDAC6 CD1-CD2 (a.a.40-831) (Danio rerio, UniProt F8W4B7).
T1 construct: Danio rerio HDAC6 CD1-CD2 (a.a.40-831) was expressed in Sf9 insect cells; made in house; host or cells: Sf9 insect cells
T1 sequence (F8W4B7 40-831): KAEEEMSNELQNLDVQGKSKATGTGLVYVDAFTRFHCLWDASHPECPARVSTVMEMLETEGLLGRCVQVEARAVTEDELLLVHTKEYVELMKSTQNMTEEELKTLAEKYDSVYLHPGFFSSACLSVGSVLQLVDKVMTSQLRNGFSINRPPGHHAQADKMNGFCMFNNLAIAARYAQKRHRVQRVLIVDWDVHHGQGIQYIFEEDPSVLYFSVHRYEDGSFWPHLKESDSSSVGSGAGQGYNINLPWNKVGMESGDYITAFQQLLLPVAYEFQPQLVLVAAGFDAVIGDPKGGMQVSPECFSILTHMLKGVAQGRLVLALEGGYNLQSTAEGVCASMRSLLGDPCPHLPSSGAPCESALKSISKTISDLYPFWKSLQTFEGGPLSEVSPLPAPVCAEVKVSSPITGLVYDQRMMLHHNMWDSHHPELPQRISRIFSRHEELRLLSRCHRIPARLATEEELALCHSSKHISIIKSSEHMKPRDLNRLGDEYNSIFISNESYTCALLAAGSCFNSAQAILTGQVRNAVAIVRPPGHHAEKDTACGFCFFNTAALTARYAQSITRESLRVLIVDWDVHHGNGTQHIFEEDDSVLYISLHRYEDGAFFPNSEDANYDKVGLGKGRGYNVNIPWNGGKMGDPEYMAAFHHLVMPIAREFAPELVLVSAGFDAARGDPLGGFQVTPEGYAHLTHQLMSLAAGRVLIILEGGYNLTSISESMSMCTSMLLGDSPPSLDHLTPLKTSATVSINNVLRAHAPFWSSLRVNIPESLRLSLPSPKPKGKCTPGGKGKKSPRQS
Put plainly: In vitro HDAC6 deacetylation assay with DDX3X-K118 acetylated peptide. It counts as biochemical. The settings on record: 1 μM Trichostatin A, 3 hours, 37° C., HPLC UV 214 nm.
Text: as §1

Another assay concerns DDX3X-K118 acetylation. Put plainly: DDX3X-K118 acetylation under arsenite-induced oxidative stress (immunoblotting). It counts as cell-based. (A western blot detects proteins with antibodies after separation by electrophoresis.)

On to `CN1CCc2c(c3ccccc3n2Cc2ccc(C(=O)NO)cc2)C1` [Tubastatin A], for which the “DDX3X-K118Ac signal after treating the cells with HDAC inhibitors” value (“DDX3X-K118Ac signal … with HDAC inhibitors” for short) with DDX3X-K118Ac is “increased”.
Consider `NC(=O)c1cccnc1` [nicotinamide], for which the “DDX3X-K118Ac signal … with HDAC inhibitors” value with DDX3X-K118Ac was “neither nicotinamide, a sirtuin deacetylase inhibitor, nor sodium butyrate, a class I HDAC inhibitor, altered the acetylation status”.
Turning to `CC(/C=C/C(=O)NO)=C\[C@@H](C)C(=O)c1ccc(N(C)C)cc1` [Trichostatin A], the “deacetylation of the DDX3X-K118Ac peptide by purified tandem HDAC6 catalytic domains” value in assay [1] is “inhibited”.
Consider `CCCC(=O)[O-].[Na+]` [sodium butyrate], for which, in the assay on DDX3X-K118Ac, the “DDX3X-K118Ac signal … with HDAC inhibitors” value is listed as “neither nicotinamide, a sirtuin deacetylase inhibitor, nor sodium butyrate, a class I HDAC inhibitor, altered the acetylation status”.
Turning to sodium arsenite, the “DDX3X-K118 acetylation after arsenite treatment” value in the assay with DDX3X-K118 acetylation was “increased”.
For `CCCCOc1ccc(CC(=O)NO)cc1` [Bufexamac], the “DDX3X-K118Ac signal … with HDAC inhibitors” value in the assay with DDX3X-K118Ac is “increased”.
Turning to `O=C(CCCCCCC(=O)Nc1ccc([C@H]2O[C@@H](CSc3nc(-c4ccccc4)c(-c4ccccc4)o3)C[C@@H](c3ccc(CO)cc3)O2)cc1)NO` [Tubacin], in the assay with DDX3X-K118Ac (HEK293T cells transfected with CBP or p300 (with or without DDX3X construct), treatment of the cells with inhibitor), the “acetylation level of endogenous or overexpressed DDX3X” value is “increased even further”. Besides, the “DDX3X-K118Ac signal … with HDAC inhibitors” value in the assay on DDX3X-K118Ac is recorded as “increased”. In addition, in the assay on DDX3X-K118 acetylation (WT cells treated with arsenite and also with Tubacin), the “DDX3X-K118 acetylation after arsenite treatment plus HDAC6 inhibitor” value was “further increased”.
